Measured values taken from patent publication US20160102002A1, “WATER TREATMENT” (BWA WATER ADDITIVES UK LIMITED, priority 2014, published 2016).

What was measured:
Desulfovibrio vulgaris = assay: Log10 reduction of viable anaerobic bacteria in dosed high-TDS suspension (serial dilution into API RP 38 media vials); type: cell-based; settings: pH 7 phosphate buffer, room temperature, ppm per example
Description: (§1) A suspension of Desulfovibrio vulgaris plus Enterobacter aerogenes bacteria containing from 1×10^6 to 1×10^8 cells/mL was prepared in sterile pH 7 phosphate buffer containing varying levels of sodium chloride to give the desired total dissolved solids (TDS) concentration. Aliquots of this suspension were dosed with the indicated concentrations of phosphonium compound (a) and stabilised halogen containing composition (b) with the concentrations being measured as ppm by weight of the stated composition in the dosed suspension. The mixtures were allowed to stand at room temperature. At the designated contact times, each mixture was sampled to determine the total number of viable cells of both Desulfovibrio vulgaris and Enterobacter aerogenes by serial 10-fold dilution into API RP 38 media vials and anaerobic acid producing media vials, respectively. The vials were incubated at 37° C. for 72 hours. Results were recorded as cells per milliliter. […]
(§2) The efficacy of the treatment agents was evaluated by measuring the Log 10 Reduction of the anaerobic bacterium Desulfovibrio vulgaris and the facultative anaerobeic bacterium Enterobacter aerogenes after contact times of 1 hour and 24 hours as detailed in Tables 1 and 2. […]

Enterobacter aerogenes = assay: Log10 reduction of viable facultative anaerobic bacteria in dosed high-TDS suspension (serial dilution into anaerobic acid producing media vials); type: cell-based; settings: pH 7 phosphate buffer, room temperature, ppm per example
Description: as §1, §2

[1] = TDS 100,000 mg l^-1, contact time 1 hour
[2] = TDS 100,000 mg l^-1, contact time 24 hours

## CCCCCCCCCCCCCC[P+](CCCC)(CCCC)CCCC.[Cl-] [Example 3, tri n-butyl n-tetradecyl phosphonium chloride]
Desulfovibrio vulgaris; [1]
  Log10 Reduction Anaerobes: 0
Enterobacter aerogenes; [1]
  Log10 Reduction Facultative Anaerobes: 0

## CCCCCCCCCCCCCC[P+](CCCC)(CCCC)CCCC.[Cl-] [Example 17, tri n-butyl n-tetradecyl phosphonium chloride]
Desulfovibrio vulgaris; [2]
  Log10 Reduction Anaerobes: 0
Enterobacter aerogenes; [2]
  Log10 Reduction Facultative Anaerobes: 0
